This experiment deals with T1, human NOX4 (Homo sapiens, UniProt Q9NPH5).
T1 construct: expressed in transfected cells; membrane fraction used
T1 sequence (Q9NPH5 1-578): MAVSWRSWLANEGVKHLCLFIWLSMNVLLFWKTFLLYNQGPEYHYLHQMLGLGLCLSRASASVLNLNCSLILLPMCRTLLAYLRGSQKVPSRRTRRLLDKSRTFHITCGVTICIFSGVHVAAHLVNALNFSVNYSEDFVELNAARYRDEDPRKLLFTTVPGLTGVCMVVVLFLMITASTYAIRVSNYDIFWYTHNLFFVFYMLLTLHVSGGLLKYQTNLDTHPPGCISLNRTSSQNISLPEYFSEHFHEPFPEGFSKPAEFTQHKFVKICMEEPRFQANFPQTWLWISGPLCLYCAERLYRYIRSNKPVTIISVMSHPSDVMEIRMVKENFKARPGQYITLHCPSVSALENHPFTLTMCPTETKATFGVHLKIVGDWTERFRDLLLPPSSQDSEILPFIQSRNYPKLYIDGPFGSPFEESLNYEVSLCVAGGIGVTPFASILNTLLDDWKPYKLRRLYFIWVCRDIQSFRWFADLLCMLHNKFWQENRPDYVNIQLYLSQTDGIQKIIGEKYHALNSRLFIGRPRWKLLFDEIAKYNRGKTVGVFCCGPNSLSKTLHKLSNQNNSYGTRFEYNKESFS
T1 sequence (P13498 1-195 partner): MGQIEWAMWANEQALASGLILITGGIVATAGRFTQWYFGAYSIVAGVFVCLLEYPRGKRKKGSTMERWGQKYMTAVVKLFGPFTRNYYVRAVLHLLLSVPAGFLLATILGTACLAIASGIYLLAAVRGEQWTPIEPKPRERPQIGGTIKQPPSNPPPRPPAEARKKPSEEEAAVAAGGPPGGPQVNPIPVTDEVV
Description: Cell free membrane based in vitro NOX4 assay: H2O2 production by membranes expressing human NOX4, measured with Amplex Red. It is filed as biochemical. To be noted: for inhibition at 1 µM: 1.0 μM compound, read-out: Percentage inhibition at 1.0 μM; for inhibition at 10 µM: 10.0 μM compound, read-out: Percentage inhibition at 10.0 μM; for IC50: class symbols. The method in brief: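 IC50 came from concentration-response curves fitted as % of the inhibitor-free maximum. H2O2 formation was monitored for 10 min via Amplex Red/HRP fluorescence (544/590 nm) after NADPH start. Membranes from a stable hNOX4/HEK line had 20 min exposure to inhibitor beforehand at pH 7.4.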

What is called inhibition is the change of the read-out against control, counted positive when it falls. What is called IC50 is the point on the concentration scale where inhibition reaches its midpoint. Higher therefore signals a need for much substance. Consider `Cn1nc(Cc2ccccc2)c2c(=O)c(O)c(-c3c(F)cccc3F)[nH]c21` [Example 115, 3-Benzyl-6-(2,6-difluorophenyl)-5-hydroxy-1-methyl-1H-pyrazolo[3,4-b]pyridin-4(7H)-one], for which the inhibition at 1 µM was determined as 76.7%, the inhibition at 10 µM came out at 80.8% and the IC50 lay within 100 to 150 nM.

With `CCn1nc(C)c2c(=O)c(O)c(-c3ccc(F)c(C(F)(F)F)c3F)[nH]c21` [Example 116, 6-(2,4-Difluoro-3-(trifluoromethyl)phenyl)-1-ethyl-5-hydroxy-3-methyl-1H-pyrazolo[3,4-b]pyridin-4(7H)-one], the inhibition at 1 µM was 78.6%, the inhibition at 10 µM came to 73% and the IC50 is greater than 150 nM.

As for `Cn1nc(N2CCOCC2)c2c(=O)c(O)c(-c3c(F)cccc3F)[nH]c21` [Example 117, 6-(2,6-Difluorophenyl)-5-hydroxy-1-methyl-3-morpholino-1H-pyrazolo[3,4-b]pyridin-4(7H)-one], the inhibition at 1 µM is 6.79% and the inhibition at 10 µM came out at 15.6%.

As for `CCn1nc(C)c2c(=O)c(O)c(-c3c(F)cc(OC)cc3F)[nH]c21` [Example 118, 6-(2,6-Difluoro-4-methoxyphenyl)-1-ethyl-5-hydroxy-3-methyl-1H-pyrazolo[3,4-b]pyridin-4(7H)-one], the inhibition at 1 µM turned out to be 78.8%, the inhibition at 10 µM is 77.5% and the IC50 is 50 to 100 nM.

Take `CCn1nc(C)c2c(=O)c(O)c(-c3ccc(N)cc3F)[nH]c21` [Example 119, 6-(4-Amino-2-fluorophenyl)-1-ethyl-5-hydroxy-3-methyl-1,7-dihydro-4H-pyrazolo[3,4-b]pyridin-4-one]: the inhibition at 1 µM came out at 66.9% and the IC50 was greater than 150 nM.

`CCn1nc(C)c2c(=O)c(O)c(-c3ccc(OCCOC)cc3F)[nH]c21` [Example 120, 1-Ethyl-6-[2-fluoro-4-(2-methoxyethoxy)phenyl]-5-hydroxy-3-methyl-1,7-dihydro-4H-pyrazolo[3,4-b]pyridin-4-one]: the inhibition at 1 µM was 64.8% and the IC50 was greater than 150 nM.

In the case of `CCn1nc(C)c2c(=O)c(O)c(-c3ccc(OCC4CC4)cc3F)[nH]c21` [Example 121, 6-[4-(Cyclopropylmethoxy)-2-fluorophenyl]-1-ethyl-5-hydroxy-3-methyl-1,7-dihydro-4H-pyrazolo[3,4-b]pyridin-4-one], the inhibition at 1 µM came out at 70.2% and the IC50 was greater than 150 nM.

Consider `CCn1nc(CC(C)C)c2c(=O)c(O)c(-c3c(F)cccc3F)[nH]c21` [Example 122, 6-(2,6-Difluorophenyl)-1-ethyl-5-hydroxy-3-(2-methylpropyl)-1,7-dihydro-4H-pyrazolo[3,4-b]pyridin-4-one], for which the inhibition at 1 µM amounted to 72.7%, the inhibition at 10 µM is 75.4% and the IC50 is greater than 150 nM.

Regarding `CCn1nc(C)c2c(=O)c(O)c(-c3c(F)cccc3Cl)[nH]c21` [Example 123, 6-(2-Chloro-6-fluorophenyl)-1-ethyl-5-hydroxy-3-methyl-1,7-dihydro-4H-pyrazolo[3,4-b]pyridin-4-one], the inhibition at 1 µM came out at 75.5%, the inhibition at 10 µM amounted to 76.2% and the IC50 is greater than 150 nM.

For the molecule `Cc1nn(C2CC2)c2[nH]c(-c3c(F)cccc3Cl)c(O)c(=O)c12` [Example 124, 6-(2-Chloro-6-fluorophenyl)-1-cyclopropyl-5-hydroxy-3-methyl-1,7-dihydro-4H-pyrazolo[3,4-b]pyridin-4-one], the inhibition at 1 µM was determined as 69.3%, the inhibition at 10 µM is 81.9% and the IC50 was greater than 150 nM.

`Cc1nn(C2CC2)c2[nH]c(-c3ccccc3Cl)c(O)c(=O)c12` [Example 125, 6-(2-Chlorophenyl)-1-cyclopropyl-5-hydroxy-3-methyl-1,7-dihydro-4H-pyrazolo[3,4-b]pyridin-4-one]: the inhibition at 1 µM was 58.4% and the inhibition at 10 µM was determined as 66.8%.

For `Cc1cc(F)ccc1-n1nc(C)c2c(=O)c(O)c(-c3ccccc3Cl)[nH]c21` [Example 126, 6-(2-Chlorophenyl)-1-(4-fluoro-2-methylphenyl)-5-hydroxy-3-methyl-1,7-dihydro-4H-pyrazolo[3,4-b]pyridin-4-one], the inhibition at 1 µM is 63.4%, the inhibition at 10 µM worked out at 76.3% and the concentration for half-maximal inhibition (IC50) was greater than 150 nM.

Take `Cc1nn(C2CCCC2)c2[nH]c(-c3c(F)cccc3F)c(O)c(=O)c12` [Example 127, 1-Cyclopentyl-6-(2,6-difluorophenyl)-5-hydroxy-3-methyl-1,7-dihydro-4H-pyrazolo[3,4-b]pyridin-4-one]: the inhibition at 1 µM was 87.5%, the inhibition at 10 µM came to 89.5% and the IC50 is less than 50 nM.

For the molecule `Cc1nn(C2CCOCC2)c2[nH]c(-c3c(F)cccc3F)c(O)c(=O)c12` [Example 128, 6-(2,6-Difluorophenyl)-5-hydroxy-3-methyl-1-(tetrahydro-2H-pyran-4-yl)-1,7-dihydro-4H-pyrazolo[3,4-b]pyridin-4-one], the inhibition at 1 µM was determined as 88.1%, the inhibition at 10 µM was found to be 92.1% and the IC50 was 50 to 100 nM.

For the molecule `CCn1nc(C)c2c(=O)c(O)c(-c3cc(CNC(=O)C(C)(C)C)ccc3Cl)[nH]c21` [Example 129, N-(4-Chloro-3-(1-ethyl-5-hydroxy-3-methyl-4-oxo-4,7-dihydro-1H-pyrazolo[3,4-b]pyridin-6-yl)benzyl)pivalamide], the inhibition at 1 µM is 85.1%, the inhibition at 10 µM was 74.4% and the IC50 was 50 to 100 nM.

For the molecule `O=c1c(O)c(-c2ccccc2Cl)[nH]c2c1c(C(F)(F)F)nn2C1CCOCC1` [Example 130, 6-(2-Chlorophenyl)-5-hydroxy-1-(tetrahydro-2H-pyran-4-yl)-3-(trifluoromethyl)-1H-pyrazolo[3,4-b]pyridin-4(7H)-one], the inhibition at 1 µM turned out to be 69.6%, the inhibition at 10 µM amounted to 98.5% and the IC50 is greater than 150 nM.

`Cc1nn(C2CCC2)c2[nH]c(-c3c(F)cccc3F)c(O)c(=O)c12` [Example 131, 1-Cyclobutyl-6-(2,6-difluorophenyl)-5-hydroxy-3-methyl-1H-pyrazolo[3,4-b]pyridin-4(7H)-one]: the inhibition at 1 µM amounted to 92.4%, the inhibition at 10 µM was 90.2% and the IC50 was less than 50 nM.

Turning to `Cn1nc(C(F)(F)F)c2c(=O)c(O)c(-c3cc(CNC(=O)C(C)(C)C)ccc3Cl)[nH]c21` [Example 132, N-(4-Chloro-3-(5-hydroxy-1-methyl-4-oxo-3-(trifluoromethyl)-4,7-dihydro-1H-pyrazolo[3,4-b]pyridin-6-yl)benzyl)pivalamide], the inhibition at 1 µM came to 74.8%, the inhibition at 10 µM turned out to be 88.7% and the half-maximal inhibitory concentration (IC50) is greater than 150 nM.

With `Cc1nn(C2CC2)c2[nH]c(-c3cc(CNC(=O)C(C)(C)C)ccc3Cl)c(O)c(=O)c12` [Example 133, N-(4-Chloro-3-(1-cyclopropyl-5-hydroxy-3-methyl-4-oxo-4,7-dihydro-1H-pyrazolo[3,4-b]pyridin-6-yl)benzyl)pivalamide], the inhibition at 1 µM is 77.3%, the inhibition at 10 µM is 88.8% and the IC50 was greater than 150 nM.

Take `O=c1c(O)c(-c2c(F)cccc2F)[nH]c2c1c(C(F)(F)F)nn2C1CCOCC1` [Example 134, 6-(2,6-Difluorophenyl)-5-hydroxy-1-(tetrahydro-2H-pyran-4-yl)-3-(trifluoromethyl)-1,7-dihydro-4H-pyrazolo[3,4-b]pyridin-4-one]: the inhibition at 1 µM was 57.1%, the inhibition at 10 µM came out at 88.2% and the IC50 is greater than 150 nM.

Regarding `Cn1nc(C(F)(F)F)c2c(=O)c(O)c(-c3cc(CNC(=O)C(C)(C)C)ccc3F)[nH]c21` [Example 135, N-(4-Fluoro-3-(5-hydroxy-1-methyl-4-oxo-3-(trifluoromethyl)-4,7-dihydro-1H-pyrazolo[3,4-b]pyridin-6-yl)benzyl)pivalamide], the inhibition at 1 µM turned out to be 71%, the inhibition at 10 µM is 90.7% and the IC50 was greater than 150 nM.

On to `Cc1nn(C2CCCCC2)c2[nH]c(-c3c(F)cccc3F)c(O)c(=O)c12` [Example 136, 1-Cyclohexyl-6-(2,6-difluorophenyl)-5-hydroxy-3-methyl-1,7-dihydro-4H-pyrazolo[3,4-b]pyridin-4-one], for which the inhibition at 1 µM is 85%, the inhibition at 10 µM came to 87.5% and the IC50 is less than 50 nM.

For `Cc1nn(C2CCC(F)(F)CC2)c2[nH]c(-c3c(F)cccc3F)c(O)c(=O)c12` [Example 137, 1-(4,4-Difluorocyclohexyl)-6-(2,6-difluorophenyl)-5-hydroxy-3-methyl-1H-pyrazolo[3,4-b]pyridin-4(7H)-one], the inhibition at 1 µM turned out to be 89.5%, the inhibition at 10 µM worked out at 86.3% and the IC50 lay in the range of 50 to 100 nM.

For the origin of these results see patent publication US20200247800A1, “SUBSTITUTED BICYCLIC HETEROCYCLIC COMPOUNDS AS NADPH OXIDASE INHIBITORS” (Glenmark Pharmaceuticals S.A., priority 2017, published 2020).
